Assays:
[1] = target: human mutant B-raf (HuBraf V600E) (Homo sapiens (Human), UniProt P15056, V600E); settings: at 10 μM compound concentration; POC = 100 − percent inhibition
Method: B-Raf Homogenous Time Resolved Fluorescence (HTRF) Kinase Assay
The final concentration of the kinase reaction buffer is 50 mM Tris-HCl pH 7.5, 10 mM MgCl2, 0.5% glucose, 0.5 mM DTT, 0.01% BSA. […] The detection reaction proceeds for one hour and is read on a RubyStar (BMG Labtech, Durham, N.C.) counter. IC50s for the test compounds are generated using Excel-XLfit software. For single concentration percent of control (POC;=100−percent inhibition) assays, compounds were assayed as above at a single test concentration of 10 M test compound.

[2] = target: ProfilerPro Kinase Selectivity Assay Kit kinases (Homo sapiens, UniProt P07948); type: biochemical; settings: LYN; 1 μM compound concentration
Method: (§1) Compounds were profiled using a LabChip® EZ Reader II platform and a ProfilerPro Kinase Selectivity Assay Kit (Caliper Lifesciences Inc., Hopkinton, Mass.). Compounds were tested at a concentration of 1 M in duplicate, with mean data reported as percent of control (POC).

[3] = target: ProfilerPro Kinase Selectivity Assay Kit kinases (Homo sapiens, UniProt P36888); type: biochemical; settings: FLT3; 1 μM compound concentration
Method: as §1

[4] = tested on: ProfilerPro Kinase Selectivity Assay Kit kinases; type: biochemical; settings: 1 μM compound concentration
Method: as §1

[5] = target: ProfilerPro Kinase Selectivity Assay Kit kinases (Homo sapiens, UniProt Q13627); type: biochemical; settings: DYRK1a; 1 μM compound concentration
Method: as §1

[6] = target: ProfilerPro Kinase Selectivity Assay Kit kinases (Homo sapiens, UniProt P00519); type: biochemical; settings: ABL; 1 μM compound concentration
Method: as §1

[7] = target: ProfilerPro Kinase Selectivity Assay Kit kinases (Homo sapiens, UniProt O14965); type: biochemical; settings: AURORA A; 1 μM compound concentration
Method: as §1

[8] = target: ProfilerPro Kinase Selectivity Assay Kit kinases (Homo sapiens, UniProt P28482); type: biochemical; settings: ERK2; 1 μM compound concentration
Method: as §1

[9] = target: ProfilerPro Kinase Selectivity Assay Kit kinases (Homo sapiens, UniProt Q06187); type: biochemical; settings: BTK; 1 μM compound concentration
Method: as §1

[10] = target: ProfilerPro Kinase Selectivity Assay Kit kinases (Homo sapiens, UniProt Q16539); type: biochemical; settings: p38 alpha; 1 μM compound concentration
Method: as §1

[11] = target: ProfilerPro Kinase Selectivity Assay Kit kinases (Homo sapiens, UniProt P49137); type: biochemical; settings: MAPKAPK2; 1 μM compound concentration
Method: as §1

[12] = target: ProfilerPro Kinase Selectivity Assay Kit kinases (Homo sapiens, UniProt P06239); type: biochemical; settings: LCK; 1 μM compound concentration
Method: as §1

[13] = target: ProfilerPro Kinase Selectivity Assay Kit kinases (Homo sapiens, UniProt Q16566); type: biochemical; settings: CAMK4; 1 μM compound concentration
Method: as §1

[14] = target: ProfilerPro Kinase Selectivity Assay Kit kinases (Homo sapiens, UniProt O75116); type: biochemical; settings: ROCK2; 1 μM compound concentration
Method: as §1

[15] = target: ProfilerPro Kinase Selectivity Assay Kit kinases (Homo sapiens, UniProt P11362); type: biochemical; settings: FGFR1; 1 μM compound concentration
Method: as §1

[16] = target: ProfilerPro Kinase Selectivity Assay Kit kinases (Homo sapiens, UniProt P04049); type: biochemical; settings: cRAF; 1 μM compound concentration
Method: as §1

[17] = target: ProfilerPro Kinase Selectivity Assay Kit kinases (Homo sapiens, UniProt P06241); type: biochemical; settings: FYN; 1 μM compound concentration
Method: as §1

[18] = target: ProfilerPro Kinase Selectivity Assay Kit kinases (Homo sapiens, UniProt P08069); type: biochemical; settings: IGF1R; 1 μM compound concentration
Method: as §1

[19] = target: ProfilerPro Kinase Selectivity Assay Kit kinases (Homo sapiens, UniProt P48730); type: biochemical; settings: CK1 delta; 1 μM compound concentration
Method: as §1

[20] = target: ProfilerPro Kinase Selectivity Assay Kit kinases (Homo sapiens, UniProt O75582); type: biochemical; settings: MSK1; 1 μM compound concentration
Method: as §1

[21] = target: ProfilerPro Kinase Selectivity Assay Kit kinases (Homo sapiens, UniProt P23443); type: biochemical; settings: p70S6K; 1 μM compound concentration
Method: as §1

[22] = target: ProfilerPro Kinase Selectivity Assay Kit kinases (Homo sapiens, UniProt Q13976); type: biochemical; settings: PKGa2; 1 μM compound concentration
Method: as §1

[23] = target: ProfilerPro Kinase Selectivity Assay Kit kinases (Homo sapiens, UniProt Q13188); type: biochemical; settings: MST2; 1 μM compound concentration
Method: as §1

[24] = target: ProfilerPro Kinase Selectivity Assay Kit kinases (Homo sapiens, UniProt O00141); type: biochemical; settings: SGK1; 1 μM compound concentration
Method: as §1

[25] = target: ProfilerPro Kinase Selectivity Assay Kit kinases (Homo sapiens, UniProt P27361); type: biochemical; settings: ERK1; 1 μM compound concentration
Method: as §1

[26] = target: ProfilerPro Kinase Selectivity Assay Kit kinases (Homo sapiens, UniProt Q8IW41); type: biochemical; settings: PRAK; 1 μM compound concentration
Method: as §1

[27] = target: ProfilerPro Kinase Selectivity Assay Kit kinases (Homo sapiens, UniProt P43405); type: biochemical; settings: SYK; 1 μM compound concentration
Method: as §1

[28] = target: ProfilerPro Kinase Selectivity Assay Kit kinases (Homo sapiens, UniProt P35968); type: biochemical; settings: KDR; 1 μM compound concentration
Method: as §1

[29] = target: ProfilerPro Kinase Selectivity Assay Kit kinases (Homo sapiens, UniProt P17612); type: biochemical; settings: PKA alpha; 1 μM compound concentration
Method: as §1

[30] = target: ProfilerPro Kinase Selectivity Assay Kit kinases (Homo sapiens, UniProt O95819); type: biochemical; settings: HGK; 1 μM compound concentration
Method: as §1

[31] = target: ProfilerPro Kinase Selectivity Assay Kit kinases (Homo sapiens, UniProt Q13177); type: biochemical; settings: PAK2; 1 μM compound concentration
Chain of ProfilerPro Kinase Selectivity Assay Kit kinases (Homo sapiens, UniProt Q13177) (Q13177 2-524 limits assumed): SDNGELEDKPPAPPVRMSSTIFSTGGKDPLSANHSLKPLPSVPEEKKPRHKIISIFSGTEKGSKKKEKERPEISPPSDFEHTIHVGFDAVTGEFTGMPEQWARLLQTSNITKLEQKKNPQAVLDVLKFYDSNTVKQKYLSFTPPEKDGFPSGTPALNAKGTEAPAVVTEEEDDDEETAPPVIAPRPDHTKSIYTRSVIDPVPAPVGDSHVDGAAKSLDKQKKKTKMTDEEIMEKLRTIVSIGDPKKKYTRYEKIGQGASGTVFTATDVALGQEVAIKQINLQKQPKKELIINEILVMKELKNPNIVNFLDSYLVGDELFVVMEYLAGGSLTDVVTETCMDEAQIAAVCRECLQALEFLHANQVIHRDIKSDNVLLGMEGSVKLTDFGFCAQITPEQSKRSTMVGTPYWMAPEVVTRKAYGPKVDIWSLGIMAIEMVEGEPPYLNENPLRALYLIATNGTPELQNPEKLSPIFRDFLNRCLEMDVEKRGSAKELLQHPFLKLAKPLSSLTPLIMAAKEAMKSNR
Method: as §1

Chain of ProfilerPro Kinase Selectivity Assay Kit kinases (Homo sapiens, UniProt Q06187) (Q06187 2-659 limits assumed): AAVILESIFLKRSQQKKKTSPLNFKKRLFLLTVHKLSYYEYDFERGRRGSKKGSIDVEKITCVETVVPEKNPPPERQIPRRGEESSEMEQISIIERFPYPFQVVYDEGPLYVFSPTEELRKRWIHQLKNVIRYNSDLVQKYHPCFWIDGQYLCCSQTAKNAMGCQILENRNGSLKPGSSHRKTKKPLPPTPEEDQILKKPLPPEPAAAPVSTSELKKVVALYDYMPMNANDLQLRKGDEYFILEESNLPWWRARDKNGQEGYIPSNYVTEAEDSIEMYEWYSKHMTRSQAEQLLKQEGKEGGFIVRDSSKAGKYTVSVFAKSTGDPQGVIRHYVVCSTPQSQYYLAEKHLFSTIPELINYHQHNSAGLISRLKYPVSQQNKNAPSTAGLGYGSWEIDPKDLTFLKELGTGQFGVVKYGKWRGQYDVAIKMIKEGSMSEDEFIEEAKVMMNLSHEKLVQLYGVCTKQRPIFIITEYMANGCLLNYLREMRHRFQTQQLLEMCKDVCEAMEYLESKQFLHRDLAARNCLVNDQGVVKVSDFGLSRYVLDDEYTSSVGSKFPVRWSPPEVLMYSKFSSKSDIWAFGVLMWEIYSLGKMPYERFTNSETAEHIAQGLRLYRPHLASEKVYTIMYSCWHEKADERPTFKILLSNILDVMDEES
Chain of ProfilerPro Kinase Selectivity Assay Kit kinases (Homo sapiens, UniProt P07948) (P07948 2-512 limits assumed): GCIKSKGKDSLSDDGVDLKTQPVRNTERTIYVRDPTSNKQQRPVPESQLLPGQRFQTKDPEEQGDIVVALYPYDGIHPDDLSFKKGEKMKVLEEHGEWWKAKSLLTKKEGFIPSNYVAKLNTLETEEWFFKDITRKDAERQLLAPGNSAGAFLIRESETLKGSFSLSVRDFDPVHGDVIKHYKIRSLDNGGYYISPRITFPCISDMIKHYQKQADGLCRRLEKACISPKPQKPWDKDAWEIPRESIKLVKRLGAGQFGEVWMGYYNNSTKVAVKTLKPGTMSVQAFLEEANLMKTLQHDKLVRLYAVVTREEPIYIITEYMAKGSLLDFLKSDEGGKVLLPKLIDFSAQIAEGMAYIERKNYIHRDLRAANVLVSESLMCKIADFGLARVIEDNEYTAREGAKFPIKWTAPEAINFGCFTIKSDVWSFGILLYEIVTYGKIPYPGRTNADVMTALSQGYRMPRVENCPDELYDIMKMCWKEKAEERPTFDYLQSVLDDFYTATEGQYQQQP
Chain of ProfilerPro Kinase Selectivity Assay Kit kinases (Homo sapiens, UniProt P27361) (P27361 2-379 limits assumed): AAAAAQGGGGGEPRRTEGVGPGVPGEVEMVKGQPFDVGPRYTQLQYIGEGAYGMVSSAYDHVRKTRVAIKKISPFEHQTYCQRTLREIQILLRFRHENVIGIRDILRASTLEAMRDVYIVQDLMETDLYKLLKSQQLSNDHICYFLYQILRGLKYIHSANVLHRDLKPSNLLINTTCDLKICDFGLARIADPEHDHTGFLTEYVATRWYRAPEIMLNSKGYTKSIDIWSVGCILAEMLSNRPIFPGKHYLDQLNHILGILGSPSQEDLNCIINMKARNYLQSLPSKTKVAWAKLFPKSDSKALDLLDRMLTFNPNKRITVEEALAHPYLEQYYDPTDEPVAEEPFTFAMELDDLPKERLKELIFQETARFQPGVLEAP
Chain of ProfilerPro Kinase Selectivity Assay Kit kinases (Homo sapiens, UniProt P36888) (P36888 27-993 limits assumed): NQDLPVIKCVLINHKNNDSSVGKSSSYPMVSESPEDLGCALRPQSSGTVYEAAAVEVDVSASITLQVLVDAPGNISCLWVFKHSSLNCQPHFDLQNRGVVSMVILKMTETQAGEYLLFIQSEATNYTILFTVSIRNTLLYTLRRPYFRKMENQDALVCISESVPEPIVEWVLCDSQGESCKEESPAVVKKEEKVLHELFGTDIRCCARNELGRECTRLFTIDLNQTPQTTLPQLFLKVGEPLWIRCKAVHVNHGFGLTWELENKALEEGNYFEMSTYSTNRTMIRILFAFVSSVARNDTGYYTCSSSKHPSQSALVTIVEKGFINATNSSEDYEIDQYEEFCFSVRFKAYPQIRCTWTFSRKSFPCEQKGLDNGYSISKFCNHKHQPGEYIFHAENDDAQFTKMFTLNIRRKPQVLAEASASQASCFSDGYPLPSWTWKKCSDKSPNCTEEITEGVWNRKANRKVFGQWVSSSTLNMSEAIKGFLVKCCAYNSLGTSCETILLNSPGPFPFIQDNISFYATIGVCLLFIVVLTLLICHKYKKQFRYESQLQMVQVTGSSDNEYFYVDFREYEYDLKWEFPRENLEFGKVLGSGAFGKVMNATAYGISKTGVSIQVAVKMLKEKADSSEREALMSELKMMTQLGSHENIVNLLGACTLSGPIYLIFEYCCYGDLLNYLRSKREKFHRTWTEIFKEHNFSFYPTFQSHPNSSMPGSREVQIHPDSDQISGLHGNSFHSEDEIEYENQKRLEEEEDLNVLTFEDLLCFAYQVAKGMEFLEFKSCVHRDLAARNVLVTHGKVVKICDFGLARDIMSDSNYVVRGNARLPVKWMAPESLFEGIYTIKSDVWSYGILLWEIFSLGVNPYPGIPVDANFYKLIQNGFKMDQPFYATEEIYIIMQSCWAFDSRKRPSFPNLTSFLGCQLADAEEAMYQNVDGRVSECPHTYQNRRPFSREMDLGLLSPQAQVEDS
Chain of ProfilerPro Kinase Selectivity Assay Kit kinases (Homo sapiens, UniProt P11362) (P11362 22-822 limits assumed): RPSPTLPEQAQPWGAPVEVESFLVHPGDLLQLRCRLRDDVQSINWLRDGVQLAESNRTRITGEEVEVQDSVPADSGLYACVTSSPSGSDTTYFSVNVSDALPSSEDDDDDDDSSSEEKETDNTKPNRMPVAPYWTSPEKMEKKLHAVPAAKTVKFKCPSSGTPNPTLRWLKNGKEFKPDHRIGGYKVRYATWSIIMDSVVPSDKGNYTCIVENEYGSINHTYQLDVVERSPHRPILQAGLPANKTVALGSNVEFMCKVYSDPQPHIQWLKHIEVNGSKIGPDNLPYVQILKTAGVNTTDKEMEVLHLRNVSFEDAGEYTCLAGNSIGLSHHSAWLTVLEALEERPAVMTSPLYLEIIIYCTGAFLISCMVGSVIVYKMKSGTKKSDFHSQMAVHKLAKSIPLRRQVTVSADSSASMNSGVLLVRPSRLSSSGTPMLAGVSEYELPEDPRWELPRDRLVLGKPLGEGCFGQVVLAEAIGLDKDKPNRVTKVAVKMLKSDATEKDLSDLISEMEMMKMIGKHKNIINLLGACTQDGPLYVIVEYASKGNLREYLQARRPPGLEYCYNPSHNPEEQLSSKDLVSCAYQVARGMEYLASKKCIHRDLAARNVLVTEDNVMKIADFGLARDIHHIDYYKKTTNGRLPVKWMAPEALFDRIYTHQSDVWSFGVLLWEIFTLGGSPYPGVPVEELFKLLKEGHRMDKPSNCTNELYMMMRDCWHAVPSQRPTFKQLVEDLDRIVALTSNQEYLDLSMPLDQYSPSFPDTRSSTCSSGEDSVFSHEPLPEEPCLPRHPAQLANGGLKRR
Chain of ProfilerPro Kinase Selectivity Assay Kit kinases (Homo sapiens, UniProt O95819) (O95819 2-1239 limits assumed): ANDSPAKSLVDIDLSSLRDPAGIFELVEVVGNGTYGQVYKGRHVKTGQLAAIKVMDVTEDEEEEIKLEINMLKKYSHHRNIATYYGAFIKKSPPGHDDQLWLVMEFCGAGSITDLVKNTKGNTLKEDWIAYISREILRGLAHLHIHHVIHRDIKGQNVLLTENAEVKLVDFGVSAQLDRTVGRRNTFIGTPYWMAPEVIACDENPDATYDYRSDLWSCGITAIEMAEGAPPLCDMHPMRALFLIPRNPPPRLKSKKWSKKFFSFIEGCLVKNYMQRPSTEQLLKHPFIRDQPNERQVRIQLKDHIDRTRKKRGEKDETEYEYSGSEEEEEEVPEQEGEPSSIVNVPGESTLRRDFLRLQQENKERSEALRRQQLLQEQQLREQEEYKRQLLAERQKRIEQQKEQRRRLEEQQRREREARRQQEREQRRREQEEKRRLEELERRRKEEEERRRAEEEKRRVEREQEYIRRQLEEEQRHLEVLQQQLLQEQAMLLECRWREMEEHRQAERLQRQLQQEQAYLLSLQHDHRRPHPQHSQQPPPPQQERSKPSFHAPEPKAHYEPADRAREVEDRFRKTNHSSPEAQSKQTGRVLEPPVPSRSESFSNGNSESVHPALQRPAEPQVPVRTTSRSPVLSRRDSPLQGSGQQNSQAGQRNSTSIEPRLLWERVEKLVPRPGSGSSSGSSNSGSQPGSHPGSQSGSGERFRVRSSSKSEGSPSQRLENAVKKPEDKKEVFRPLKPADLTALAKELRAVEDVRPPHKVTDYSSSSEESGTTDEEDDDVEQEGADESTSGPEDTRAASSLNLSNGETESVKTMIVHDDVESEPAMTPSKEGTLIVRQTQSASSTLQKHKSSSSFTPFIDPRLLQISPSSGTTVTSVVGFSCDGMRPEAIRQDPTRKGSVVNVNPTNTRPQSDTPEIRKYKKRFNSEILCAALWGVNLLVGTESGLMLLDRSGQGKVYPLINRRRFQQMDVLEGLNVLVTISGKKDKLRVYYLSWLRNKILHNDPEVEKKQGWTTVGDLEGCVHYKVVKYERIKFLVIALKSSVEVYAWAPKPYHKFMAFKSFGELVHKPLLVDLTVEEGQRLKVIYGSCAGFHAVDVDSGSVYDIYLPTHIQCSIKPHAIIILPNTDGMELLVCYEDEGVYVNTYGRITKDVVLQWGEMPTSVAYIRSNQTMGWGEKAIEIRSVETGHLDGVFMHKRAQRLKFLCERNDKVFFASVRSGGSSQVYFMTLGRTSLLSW

| Compound | POC (Percent of control) LYN [2] | POC (Percent of control) FLT3 [3] | POC (Percent of control) AMPK [4] | POC (Percent of control) CAMK2 [4] | POC (Percent of control) PKC beta2 [4] | POC (Percent of control) TAK1 [4] | POC (Percent of control) DYRK1a [5] | POC (Percent of control) ABL [6] | POC (Percent of control) AURORA A [7] | POC (Percent of control) ERK2 [8] | POC (Percent of control) BTK [9] | POC (Percent of control) p38 alpha [10] | POC (Percent of control) MAPKAPK2 [11] | POC (Percent of control) LCK [12] | POC (Percent of control) CAMK4 [13] | POC (Percent of control) ROCK2 [14] | POC (Percent of control) FGFR1 [15] | POC (Percent of control) cRAF [16] | POC (Percent of control) FYN [17] | POC (Percent of control) IGF1R [18] | further results |
| --- | --- | --- | --- | --- | --- | --- | --- | --- | --- | --- | --- | --- | --- | --- | --- | --- | --- | --- | --- | --- | --- |
| COc1ccc(Nc2ncccc2-c2ncnc3[nH]cnc23)cn1 [Example 20, N-(6-Methoxypyridin-3-yl)-3-(9H-Purin-6-yl)Pyridin-2-Amine] | 92 POC | 120 POC | 93 POC | 111 POC | 104 POC | 99 POC | 102 POC | 99 POC | 96 POC | 101 POC | 98 POC | 93 POC | 100 POC | 101 POC | 100 POC | 101 POC | 94 POC | 59 POC | 101 POC | 93 POC | Mutant B-raf HTRF Assay POC Mean n = 2 [1]: 72% of Control (POC); POC (Percent of control) CK1 delta [19]: 93 POC; POC (Percent of control) MSK1 [20]: 93 POC; POC (Percent of control) p70S6K [21]: 104 POC; POC (Percent of control) PKGa2 [22]: 98 POC; POC (Percent of control) MST2 [23]: 95 POC; POC (Percent of control) SGK1 [24]: 95 POC; POC (Percent of control) ERK1 [25]: 96 POC; POC (Percent of control) PRAK [26]: 99 POC; POC (Percent of control) SYK [27]: 107 POC; POC (Percent of control) KDR [28]: 93 POC; POC (Percent of control) PKA alpha [29]: 97 POC; POC (Percent of control) HGK [30]: 94 POC; POC (Percent of control) PAK2 [31]: 103 POC |
| COc1ccc(Nc2ncccc2-c2nc(C)nc3[nH]cnc23)cn1 [Example 58, N-(6-methoxypyridin-3-yl)-3-(2-methyl-9H-purin-6-yl)pyridin-2-amine] | 100 POC | 112 POC | 99 POC | 103 POC | 161 POC | 107 POC | 93 POC | 99 POC | 94 POC | 103 POC | 102 POC | 98 POC | 96 POC | 98 POC | 95 POC | 100 POC | 94 POC | 99 POC | 103 POC | 92 POC | Mutant B-raf HTRF Assay POC Mean n = 2 [1]: 97% of Control (POC); POC (Percent of control) CK1 delta [19]: 104 POC; POC (Percent of control) MSK1 [20]: 98 POC; POC (Percent of control) p70S6K [21]: 98 POC; POC (Percent of control) PKGa2 [22]: 97 POC; POC (Percent of control) MST2 [23]: 100 POC; POC (Percent of control) SGK1 [24]: 97 POC; POC (Percent of control) ERK1 [25]: 101 POC; POC (Percent of control) PRAK [26]: 84 POC; POC (Percent of control) SYK [27]: 86 POC; POC (Percent of control) KDR [28]: 93 POC; POC (Percent of control) PKA alpha [29]: 96 POC; POC (Percent of control) HGK [30]: 104 POC; POC (Percent of control) PAK2 [31]: 102 POC |
| COc1ccc(Nc2ncc(Cc3ccc(S(C)(=O)=O)cc3)cc2-c2nc(C)nc3[nH]cnc23)cn1 [Example 103, N-(6-methoxypyridin-3-yl)-3-(2-methyl-9H-purin-6-yl)-5-(4-(methylsulfonyl)benzyl)pyridin-2-amine] | 97 POC | 85 POC | 102 POC | 95 POC | 100 POC | 115 POC | 83 POC | 95 POC | 100 POC | 94 POC | 97 POC | 92 POC | 100 POC | 92 POC | 95 POC | 106 POC | 100 POC | 100 POC | 97 POC | 91 POC | POC (Percent of control) CK1 delta [19]: 120 POC; POC (Percent of control) MSK1 [20]: 101 POC; POC (Percent of control) p70S6K [21]: 109 POC; POC (Percent of control) PKGa2 [22]: 98 POC; POC (Percent of control) MST2 [23]: 98 POC; POC (Percent of control) SGK1 [24]: 96 POC; POC (Percent of control) ERK1 [25]: 101 POC; POC (Percent of control) PRAK [26]: 103 POC; POC (Percent of control) SYK [27]: 99 POC; POC (Percent of control) KDR [28]: 91 POC; POC (Percent of control) PKA alpha [29]: 99 POC; POC (Percent of control) HGK [30]: 85 POC; POC (Percent of control) PAK2 [31]: 98 POC |

Reference: patent publication US8772480B2, “Inhibitors of PI3 kinase and/or mTOR” (priority 2009, dated 2014)
